Reference: ChEMBL document CHEMBL6071183, “Neuroprotective Effect of 2-(Benzyloxy)arylureas Is Not Related to CypD Inhibition nor Suppression of mPTP Opening” (ACS Med Chem Lett, 2024)
≈ marks a conversion by molar mass, not a printed value.

Columns and labels:
[1] = target: Peptidyl-prolyl cis-trans isomerase A (Homo sapiens, UniProt P62937)
Sequence of Peptidyl-prolyl cis-trans isomerase A (P62937 whole entry): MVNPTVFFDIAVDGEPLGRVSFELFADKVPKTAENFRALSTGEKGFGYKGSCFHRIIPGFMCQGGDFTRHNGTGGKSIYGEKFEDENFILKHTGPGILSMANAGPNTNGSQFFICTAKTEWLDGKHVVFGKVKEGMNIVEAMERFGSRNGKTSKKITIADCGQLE

IC50 [1]: 10 µM
solubility (physchem): 20 µM (≈ 7.29 µg/mL)
Structure (SMILES): O=C(Nc1ccc([N+](=O)[O-])cc1)Nc1ncccc1OCc1ccccc1
